According to the supplement of paper PMC10307832:

Experiments:
Assay in all cases: relative viability (nuclei count vs DMSO), 5 days (fraction); higher = more cells survive
XMD14-99 + OSI-027 = compound: CN1CCN(CC1)C2=CC(=C(C=C2)NC3=NC(=C(S3)C(=O)C4=C(C=CC=C4Cl)Cl)N)OC [XMD14-99] + COc1cccc2cc(-c3nc([C@H]4CC[C@H](C(=O)O)CC4)n4ncnc(N)c34)[nH]c12 [OSI-027] (partner 0.5 µM)
Summary of the method: (§1)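 Cells from lung cancer lines were seeded into 1536-well plates and, one day later, dosed by pin tool. Treatments were either a single drug or a fixed dose of an anchor drug with five library-drug doses (not always all listed) in √10 steps. After 5 days, nuclei were stained in a one-step fixation (final 0.05% Triton X-100, 1% formaldehyde, 1 ug/ml Hoechst) and counted on 4× images, and relative viability is the treated-to-vehicle nuclei ratio, as the median of duplicate plates.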

XMD14-99 + Linsitinib = compound: CN1CCN(CC1)C2=CC(=C(C=C2)NC3=NC(=C(S3)C(=O)C4=C(C=CC=C4Cl)Cl)N)OC [XMD14-99] + C[C@]1(O)C[C@@H](c2nc(-c3ccc4ccc(-c5ccccc5)nc4c3)c3c(N)nccn32)C1 [Linsitinib] (partner 1 µM)
Summary of the method: as §1

XMD14-99 + Phenformin = compound: CN1CCN(CC1)C2=CC(=C(C=C2)NC3=NC(=C(S3)C(=O)C4=C(C=CC=C4Cl)Cl)N)OC [XMD14-99] + N=C(N)NC(=N)NCCc1ccccc1 [Phenformin] (partner 250 µM)
Summary of the method: as §1

AZD1208 + Luminespib = compound: N[C@@H]1CCCN(c2c(/C=C3\SC(=O)NC3=O)cccc2-c2ccccc2)C1 [AZD1208] + CCNC(=O)c1noc(-c2cc(C(C)C)c(O)cc2O)c1-c1ccc(CN2CCOCC2)cc1 [Luminespib] (partner 0.01 µM)
Summary of the method: as §1

Cell Line | relative viability (XMD14-99 + OSI-027; first compound 0.08 µM) | relative viability (XMD14-99 + OSI-027; first compound 0.8 µM) | relative viability (XMD14-99 + OSI-027; first compound 2.53 µM) | relative viability (XMD14-99 + OSI-027; first compound 8 µM) | relative viability (XMD14-99 + Linsitinib; first compound 0.08 µM) | relative viability (XMD14-99 + Linsitinib; first compound 0.8 µM) | relative viability (XMD14-99 + Linsitinib; first compound 2.53 µM) | relative viability (XMD14-99 + Linsitinib; first compound 8 µM) | relative viability (XMD14-99 + Phenformin; first compound 0.08 µM) | relative viability (XMD14-99 + Phenformin; first compound 0.8 µM) | relative viability (XMD14-99 + Phenformin; first compound 2.53 µM) | relative viability (XMD14-99 + Phenformin; first compound 8 µM) | relative viability (AZD1208 + Luminespib; first compound 0.08 µM) | relative viability (AZD1208 + Luminespib; first compound 0.253 µM) | relative viability (AZD1208 + Luminespib; first compound 0.8 µM) | relative viability (AZD1208 + Luminespib; first compound 8 µM) | relative viability (AZD1208 + Luminespib; first compound 2.53 µM)
COR-L 105 | 0.701 | 0.646 | 0.647 | 0.409 | 0.924 | 0.665 | 0.879 | 0.703 | 0.477 | 0.494 | 0.398 | 0.371 | 0.728 | 0.781 | 0.826 | 0.855 | –
NCI-H1975 | 0.825 | 0.822 | 0.653 | 0.535 | 0.872 | 0.97 | 0.81 | 0.663 | 0.379 | 0.41 | 0.325 | 0.317 | 0.235 | 0.296 | 0.2 | 0.18 | 0.228
NCI-H2009 | 0.611 | 0.607 | 0.508 | 0.273 | 1.2 | 1.15 | 1.19 | 0.91 | 0.482 | 0.442 | 0.331 | 0.251 | 1.1 | 1.04 | 1.06 | 1.05 | 1.09
SK-LU-1 | 0.34 | 0.391 | 0.301 | 0.213 | 0.872 | 1.2 | 1.07 | 0.671 | 0.523 | 0.563 | 0.456 | 0.322 | 0.186 | 0.198 | 0.194 | 0.198 | 0.226
NCI-H2347 | 0.401 | 0.349 | 0.378 | 0.276 | 1.02 | 1.02 | 0.873 | 0.633 | 0.529 | 0.422 | 0.406 | 0.251 | 0.416 | 0.625 | 0.415 | 0.306 | 0.371
EMC-BAC-2 | 0.362 | 0.384 | 0.313 | 0.292 | 0.804 | 0.81 | 0.775 | 0.676 | 0.51 | 0.515 | 0.445 | 0.384 | 1.12 | 1.2 | 1.13 | 0.812 | 1.11
NCI-H3122 | 0.815 | 0.811 | 0.623 | 0.163 | 1 | 1.02 | 0.88 | 0.678 | 0.372 | 0.361 | 0.291 | 0.237 | 0.0933 | 0.129 | 0.0763 | 0.0841 | 0.0991
NCI-H358 | 0.702 | 0.813 | 0.707 | 0.404 | 0.703 | 0.673 | 0.557 | 0.29 | 0.306 | 0.354 | 0.267 | 0.217 | 0.38 | 0.307 | 0.514 | 0.122 | 0.319
NCI-H1944 | 0.382 | 0.44 | 0.358 | 0.278 | 1.23 | 1.19 | 1.12 | 1.04 | 0.194 | 0.203 | 0.173 | 0.157 | 0.765 | 0.711 | 0.548 | 0.346 | 0.557
EPLC-272H | 0.311 | 0.32 | 0.282 | 0.263 | 1.14 | 1.21 | 1.4 | 1.02 | 0.284 | 0.256 | 0.302 | 0.347 | 0.276 | 0.557 | 0.288 | 0.215 | 0.219
NCI-H1915 | 0.629 | 0.548 | 0.487 | 0.415 | 1.14 | 1.04 | 0.951 | 0.965 | 0.369 | 0.385 | 0.36 | 0.335 | 0.768 | 0.811 | 0.709 | 0.678 | 0.677
NCI-H647 | 0.621 | 0.71 | 0.746 | 0.605 | 1.25 | 1.12 | 1.27 | 0.929 | 0.526 | 0.494 | 0.6 | 0.489 | 0.266 | 0.16 | 0.294 | 0.146 | 0.154
NCI-H441 | 0.61 | 0.568 | 0.665 | 0.427 | 0.719 | 0.52 | 0.528 | 0.382 | 0.889 | 0.811 | 0.738 | 0.662 | 0.393 | 0.331 | 0.26 | 0.265 | 0.342
NCI-H23 | 0.699 | 0.616 | 0.615 | 0.496 | 0.516 | 0.617 | 0.59 | 0.527 | 0.767 | 0.85 | 0.741 | 0.659 | 0.238 | 0.218 | – | 0.24 | 0.202
NCI-H650 | 0.544 | 0.58 | 0.464 | 0.42 | 1.08 | 0.906 | 0.77 | 0.675 | 0.497 | 0.465 | 0.423 | 0.364 | 0.865 | 0.768 | 0.789 | 0.819 | 0.757
SK-MES-1 | 0.589 | 0.506 | 0.54 | 0.291 | 1.08 | 1.04 | 1.03 | 0.754 | 0.644 | 0.647 | 0.575 | 0.475 | 0.771 | 0.736 | 0.607 | 0.531 | 0.689
NCI-H2087 | 0.524 | 0.487 | 0.45 | 0.299 | 0.894 | 0.695 | 0.679 | 0.646 | 0.445 | 0.408 | 0.346 | 0.2 | 0.166 | 0.145 | 0.14 | 0.171 | 0.141
NCI-H838 | 0.481 | 0.403 | 0.356 | 0.298 | 0.948 | 0.932 | 0.92 | 0.681 | 0.612 | 0.556 | 0.474 | 0.383 | 0.294 | 0.211 | 0.252 | 0.22 | 0.327
